In the NIST ThermoML archive (doi:10.1016/j.jct.2008.02.019):

Experiments:
[1] = 101.33 kPa, Liquid
[2] = refractive index (Na D-line) (dimensionless); settings: 101.33 kPa, Liquid, Standard Abbe refractometry
[3] = xn = mol fraction of the nth substance listed; settings: 101 kPa, Liquid
[4] = excess molar enthalpy (molar enthalpy of mixing); xn = mol fraction of the nth substance listed; settings: 101 kPa, Liquid, Flow calorimetry

CCCC[n+]1ccc(C)cc1.F[B-](F)(F)F [1-butyl-4-methylpyridinium tetrafluoroborate]
Settings	mass density, [1] [kg/m3]	refractive index, [2]
298.15 K	1183.49	1.4517
318.15 K	1169.12	1.447

CCCC[n+]1ccc(C)cc1.F[B-](F)(F)F [1-butyl-4-methylpyridinium tetrafluoroborate] + CCCCCO
[3], 318.15 K
Settings	mass density [kg/m3]
x1 = 0.5651	1060.4
x1 = 0.6035	1072.1
x1 = 0.6715	1091.9
x1 = 0.7601	1115.3
x1 = 0.8041	1126.1
x1 = 0.8616	1139.6
x1 = 0.912	1150.8

CCCC[n+]1ccc(C)cc1.F[B-](F)(F)F [1-butyl-4-methylpyridinium tetrafluoroborate] + CCCCO
Settings	excess molar enthalpy [kcal/mol]	mass density [kg/m3]
[3], 298.15 K, x1 = 0.5948	–	1094.4
[3], 298.15 K, x1 = 0.692	–	1120.2
[3], 298.15 K, x1 = 0.739	–	1131.5
[3], 298.15 K, x1 = 0.7851	–	1141.8
[3], 298.15 K, x1 = 0.8916	–	1163.9
[3], 318.15 K, x1 = 0.0548	–	833.2
[3], 318.15 K, x1 = 0.1169	–	875.7
[3], 318.15 K, x1 = 0.2301	–	940.7
[3], 318.15 K, x1 = 0.3406	–	992.1
[3], 318.15 K, x1 = 0.4471	–	1033.5
[3], 318.15 K, x1 = 0.564	–	1071.4
[3], 318.15 K, x1 = 0.6758	–	1102.2
[3], 318.15 K, x1 = 0.7856	–	1128.1
[3], 318.15 K, x1 = 0.8427	–	1140
[3], 318.15 K, x1 = 0.887	–	1148.6
[4], 318.15 K, x1 = 0.0242	0.112	–
[4], 318.16 K, x1 = 0.0613	0.226	–
[4], 318.17 K, x1 = 0.1029	0.339	–
[4], 318.18 K, x1 = 0.1466	0.429	–
[4], 318.19 K, x1 = 0.1938	0.527	–
[4], 318.2 K, x1 = 0.24	0.601	–
[4], 318.21 K, x1 = 0.2864	0.654	–
[4], 318.22 K, x1 = 0.3344	0.694	–
[4], 318.23 K, x1 = 0.3708	0.704	–
[4], 318.24 K, x1 = 0.4149	0.707	–
[4], 318.25 K, x1 = 0.4635	0.69	–
[4], 318.26 K, x1 = 0.5162	0.667	–
[4], 318.27 K, x1 = 0.5729	0.623	–
[4], 318.28 K, x1 = 0.6488	0.542	–
[4], 318.29 K, x1 = 0.7232	0.463	–
[4], 318.3 K, x1 = 0.7962	0.361	–
[4], 318.31 K, x1 = 0.8569	0.278	–
[4], 318.32 K, x1 = 0.9006	0.195	–
[4], 318.33 K, x1 = 0.9435	0.129	–

CCCC[n+]1ccc(C)cc1.F[B-](F)(F)F [1-butyl-4-methylpyridinium tetrafluoroborate] + CCCO
Settings	excess molar enthalpy [kcal/mol]	mass density [kg/m3]
[3], 298.15 K, x1 = 0.0154	–	815.6
[3], 298.15 K, x1 = 0.0271	–	827.2
[3], 298.15 K, x1 = 0.2988	–	1006.8
[3], 298.15 K, x1 = 0.3987	–	1047.4
[3], 298.15 K, x1 = 0.4965	–	1079.8
[3], 298.15 K, x1 = 0.5972	–	1107.8
[3], 298.15 K, x1 = 0.6889	–	1129.1
[3], 298.15 K, x1 = 0.696	–	1130.6
[3], 298.15 K, x1 = 0.7812	–	1147.9
[3], 298.15 K, x1 = 0.8841	–	1165.9
[3], 318.15 K, x1 = 0.0549	–	837.6
[3], 318.15 K, x1 = 0.1008	–	875.1
[3], 318.15 K, x1 = 0.1969	–	939.6
[3], 318.15 K, x1 = 0.3103	–	997.6
[3], 318.15 K, x1 = 0.3828	–	1027.5
[3], 318.15 K, x1 = 0.4381	–	1047.4
[3], 318.15 K, x1 = 0.4534	–	1052.4
[3], 318.15 K, x1 = 0.4901	–	1064
[3], 318.15 K, x1 = 0.6039	–	1095.2
[3], 318.15 K, x1 = 0.6726	–	1111.2
[3], 318.15 K, x1 = 0.8248	–	1141.4
[3], 318.15 K, x1 = 0.8967	–	1156.9
[3], 318.15 K, x1 = 0.9191	–	1153.3
[4], 298.15 K, x1 = 0.012	0.0315	–
[4], 298.15 K, x1 = 0.0243	0.0516	–
[4], 298.15 K, x1 = 0.0308	0.0719	–
[4], 298.15 K, x1 = 0.3198	0.596	–
[4], 298.15 K, x1 = 0.3532	0.588	–
[4], 298.15 K, x1 = 0.3908	0.579	–
[4], 298.15 K, x1 = 0.4344	0.56	–
[4], 298.15 K, x1 = 0.4819	0.54	–
[4], 298.15 K, x1 = 0.5374	0.505	–
[4], 298.15 K, x1 = 0.6008	0.457	–
[4], 298.15 K, x1 = 0.6734	0.394	–
[4], 298.15 K, x1 = 0.752	0.315	–
[4], 298.15 K, x1 = 0.8319	0.237	–
[4], 298.15 K, x1 = 0.9181	0.138	–
[4], 318.15 K, x1 = 0.0189	0.0927	–
[4], 318.16 K, x1 = 0.054	0.229	–
[4], 318.17 K, x1 = 0.093	0.351	–
[4], 318.18 K, x1 = 0.1341	0.454	–
[4], 318.19 K, x1 = 0.1775	0.543	–
[4], 318.2 K, x1 = 0.2167	0.609	–
[4], 318.21 K, x1 = 0.2312	0.641	–
[4], 318.22 K, x1 = 0.2581	0.67	–
[4], 318.23 K, x1 = 0.2912	0.692	–
[4], 318.24 K, x1 = 0.331	0.708	–
[4], 318.25 K, x1 = 0.3847	0.704	–
[4], 318.26 K, x1 = 0.4488	0.69	–
[4], 318.27 K, x1 = 0.5249	0.65	–
[4], 318.28 K, x1 = 0.6069	0.585	–
[4], 318.29 K, x1 = 0.6964	0.496	–
[4], 318.3 K, x1 = 0.7815	0.405	–
[4], 318.31 K, x1 = 0.846	0.309	–
[4], 318.32 K, x1 = 0.9043	0.197	–
[4], 318.33 K, x1 = 0.9568	0.104	–

CCCC[n+]1ccc(C)cc1.F[B-](F)(F)F [1-butyl-4-methylpyridinium tetrafluoroborate] + CCO
Settings	excess molar enthalpy [kcal/mol]	mass density [kg/m3]
[3], 298.15 K, x1 = 0.0523	–	852
[3], 298.15 K, x1 = 0.1023	–	901.7
[3], 298.15 K, x1 = 0.1469	–	938.3
[3], 298.15 K, x1 = 0.2023	–	976
[3], 298.15 K, x1 = 0.307	–	1030.5
[3], 298.15 K, x1 = 0.3801	–	1059.5
[3], 298.15 K, x1 = 0.4445	–	1080.8
[3], 298.15 K, x1 = 0.5069	–	1098.6
[3], 298.15 K, x1 = 0.5553	–	1110.8
[3], 298.15 K, x1 = 0.6045	–	1121.8
[3], 298.15 K, x1 = 0.6639	–	1134.2
[3], 298.15 K, x1 = 0.7127	–	1142.8
[3], 298.15 K, x1 = 0.7447	–	1148.4
[3], 298.15 K, x1 = 0.7964	–	1156.8
[3], 298.15 K, x1 = 0.8673	–	1167
[3], 298.15 K, x1 = 0.9171	–	1173.6
[3], 318.15 K, x1 = 0.0464	–	827.9
[3], 318.15 K, x1 = 0.0965	–	881.1
[3], 318.15 K, x1 = 0.1445	–	921.6
[3], 318.15 K, x1 = 0.2494	–	987.9
[3], 318.15 K, x1 = 0.2968	–	1011
[3], 318.15 K, x1 = 0.3855	–	1046.8
[3], 318.15 K, x1 = 0.4947	–	1080.9
[3], 318.15 K, x1 = 0.5877	–	1103.6
[3], 318.15 K, x1 = 0.6821	–	1123.2
[3], 318.15 K, x1 = 0.7798	–	1139.8
[3], 318.15 K, x1 = 0.8267	–	1146.8
[3], 318.15 K, x1 = 0.8776	–	1153.8
[4], 298.15 K, x1 = 0.0209	0.0715	–
[4], 298.15 K, x1 = 0.0461	0.149	–
[4], 298.15 K, x1 = 0.0751	0.224	–
[4], 298.15 K, x1 = 0.1068	0.285	–
[4], 298.15 K, x1 = 0.1406	0.358	–
[4], 298.15 K, x1 = 0.1751	0.419	–
[4], 298.15 K, x1 = 0.2104	0.481	–
[4], 298.15 K, x1 = 0.246	0.527	–
[4], 298.15 K, x1 = 0.2661	0.554	–
[4], 298.15 K, x1 = 0.3	0.571	–
[4], 298.15 K, x1 = 0.3402	0.58	–
[4], 298.15 K, x1 = 0.3855	0.57	–
[4], 298.15 K, x1 = 0.4296	0.545	–
[4], 298.15 K, x1 = 0.4879	0.505	–
[4], 298.15 K, x1 = 0.5522	0.455	–
[4], 298.15 K, x1 = 0.6225	0.389	–
[4], 298.15 K, x1 = 0.712	0.318	–
[4], 298.15 K, x1 = 0.8071	0.223	–
[4], 298.15 K, x1 = 0.903	0.12	–
[4], 318.15 K, x1 = 0.0162	0.0906	–
[4], 318.16 K, x1 = 0.0465	0.211	–
[4], 318.17 K, x1 = 0.075	0.315	–
[4], 318.18 K, x1 = 0.108	0.408	–
[4], 318.19 K, x1 = 0.1427	0.495	–
[4], 318.2 K, x1 = 0.178	0.566	–
[4], 318.21 K, x1 = 0.2091	0.623	–
[4], 318.22 K, x1 = 0.2364	0.658	–
[4], 318.23 K, x1 = 0.2498	0.683	–
[4], 318.24 K, x1 = 0.2824	0.708	–
[4], 318.25 K, x1 = 0.3237	0.718	–
[4], 318.26 K, x1 = 0.3722	0.717	–
[4], 318.27 K, x1 = 0.4286	0.697	–
[4], 318.28 K, x1 = 0.4859	0.664	–
[4], 318.29 K, x1 = 0.5506	0.618	–
[4], 318.3 K, x1 = 0.6196	0.558	–
[4], 318.31 K, x1 = 0.6923	0.483	–
[4], 318.32 K, x1 = 0.7625	0.404	–
[4], 318.33 K, x1 = 0.8348	0.315	–
[4], 318.34 K, x1 = 0.9014	0.213	–
[4], 318.35 K, x1 = 0.9592	0.102	–
